Test results taken from ChEMBL document CHEMBL1149603, “5-Arylidene-2,4-thiazolidinediones as inhibitors of protein tyrosine phosphatases” (Bioorg Med Chem, 2007).

How the values were obtained:
[1] = molecular target: T1, Tyrosine-protein phosphatase non-receptor type 1 (Homo sapiens, UniProt P18031); experiment: Inhibition of human protein-tyrosine phosphatase 1B
T1 sequence (P18031 whole entry): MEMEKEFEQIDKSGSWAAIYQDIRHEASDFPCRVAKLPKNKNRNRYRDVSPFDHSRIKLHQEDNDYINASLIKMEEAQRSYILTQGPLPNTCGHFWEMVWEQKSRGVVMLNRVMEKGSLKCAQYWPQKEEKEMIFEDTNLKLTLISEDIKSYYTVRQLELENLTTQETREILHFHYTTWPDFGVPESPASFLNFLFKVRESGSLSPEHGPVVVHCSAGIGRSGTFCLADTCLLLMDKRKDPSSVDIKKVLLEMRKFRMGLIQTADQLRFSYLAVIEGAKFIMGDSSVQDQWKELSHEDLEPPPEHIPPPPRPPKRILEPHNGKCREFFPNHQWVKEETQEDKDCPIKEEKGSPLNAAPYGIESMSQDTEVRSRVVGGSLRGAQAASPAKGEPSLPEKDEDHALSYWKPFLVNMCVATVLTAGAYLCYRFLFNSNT

[2] = molecular target: T2, Low molecular weight phosphotyrosine protein phosphatase (Homo sapiens, UniProt P24666); experiment: Inhibition of human low molecular weight Protein-tyrosine phosphatase IF1
T2 sequence (P24666 whole entry): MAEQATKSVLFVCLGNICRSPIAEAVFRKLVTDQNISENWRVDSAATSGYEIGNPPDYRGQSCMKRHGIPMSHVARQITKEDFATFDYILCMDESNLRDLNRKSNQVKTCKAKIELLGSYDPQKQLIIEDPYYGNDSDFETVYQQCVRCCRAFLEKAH

[3] = molecular target: T3, Low molecular weight phosphotyrosine protein phosphatase (Saccharomyces cerevisiae S288c, UniProt P40347); experiment: Inhibition of Saccharomyces cerevisiae low molecular weight Protein-tyrosine phosphatase Ltp1
T3 sequence (P40347 whole entry): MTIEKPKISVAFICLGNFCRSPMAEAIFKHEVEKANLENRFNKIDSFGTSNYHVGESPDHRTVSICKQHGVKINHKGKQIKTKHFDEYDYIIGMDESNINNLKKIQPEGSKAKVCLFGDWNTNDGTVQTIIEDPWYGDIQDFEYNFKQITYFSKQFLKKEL

[4] = molecular target: T2, Low molecular weight phosphotyrosine protein phosphatase; experiment: Inhibition of human low molecular weight Protein-tyrosine phosphatase IF2
[5] = molecular target: T4, Tyrosine-protein phosphatase non-receptor type 2 (Homo sapiens, UniProt P17706); experiment: Inhibition of human T cell protein-tyrosine phosphatase; type: cell-based
T4 sequence (P17706 whole entry): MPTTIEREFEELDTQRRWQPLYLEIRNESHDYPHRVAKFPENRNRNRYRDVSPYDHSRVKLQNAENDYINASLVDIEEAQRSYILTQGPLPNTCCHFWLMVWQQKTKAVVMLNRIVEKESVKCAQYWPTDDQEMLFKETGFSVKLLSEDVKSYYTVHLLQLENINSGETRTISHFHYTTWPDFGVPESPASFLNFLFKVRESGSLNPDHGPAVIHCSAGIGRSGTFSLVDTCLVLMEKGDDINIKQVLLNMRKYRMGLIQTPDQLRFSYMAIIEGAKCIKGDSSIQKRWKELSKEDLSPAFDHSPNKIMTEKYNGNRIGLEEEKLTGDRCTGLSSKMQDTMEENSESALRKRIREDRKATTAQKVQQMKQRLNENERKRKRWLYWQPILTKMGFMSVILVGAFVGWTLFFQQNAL

[6] = Inhibition of Yersinia Tyrosine-protein phosphatase yopH; set-up: species or system Yersinia sp.
[7] = molecular target: Receptor-type tyrosine-protein phosphatase F (Homo sapiens, UniProt P10586); experiment: Inhibition of human leukocyte antigen related protein-tyrosine phosphatase
Sequence of Receptor-type tyrosine-protein phosphatase F (P10586 whole entry): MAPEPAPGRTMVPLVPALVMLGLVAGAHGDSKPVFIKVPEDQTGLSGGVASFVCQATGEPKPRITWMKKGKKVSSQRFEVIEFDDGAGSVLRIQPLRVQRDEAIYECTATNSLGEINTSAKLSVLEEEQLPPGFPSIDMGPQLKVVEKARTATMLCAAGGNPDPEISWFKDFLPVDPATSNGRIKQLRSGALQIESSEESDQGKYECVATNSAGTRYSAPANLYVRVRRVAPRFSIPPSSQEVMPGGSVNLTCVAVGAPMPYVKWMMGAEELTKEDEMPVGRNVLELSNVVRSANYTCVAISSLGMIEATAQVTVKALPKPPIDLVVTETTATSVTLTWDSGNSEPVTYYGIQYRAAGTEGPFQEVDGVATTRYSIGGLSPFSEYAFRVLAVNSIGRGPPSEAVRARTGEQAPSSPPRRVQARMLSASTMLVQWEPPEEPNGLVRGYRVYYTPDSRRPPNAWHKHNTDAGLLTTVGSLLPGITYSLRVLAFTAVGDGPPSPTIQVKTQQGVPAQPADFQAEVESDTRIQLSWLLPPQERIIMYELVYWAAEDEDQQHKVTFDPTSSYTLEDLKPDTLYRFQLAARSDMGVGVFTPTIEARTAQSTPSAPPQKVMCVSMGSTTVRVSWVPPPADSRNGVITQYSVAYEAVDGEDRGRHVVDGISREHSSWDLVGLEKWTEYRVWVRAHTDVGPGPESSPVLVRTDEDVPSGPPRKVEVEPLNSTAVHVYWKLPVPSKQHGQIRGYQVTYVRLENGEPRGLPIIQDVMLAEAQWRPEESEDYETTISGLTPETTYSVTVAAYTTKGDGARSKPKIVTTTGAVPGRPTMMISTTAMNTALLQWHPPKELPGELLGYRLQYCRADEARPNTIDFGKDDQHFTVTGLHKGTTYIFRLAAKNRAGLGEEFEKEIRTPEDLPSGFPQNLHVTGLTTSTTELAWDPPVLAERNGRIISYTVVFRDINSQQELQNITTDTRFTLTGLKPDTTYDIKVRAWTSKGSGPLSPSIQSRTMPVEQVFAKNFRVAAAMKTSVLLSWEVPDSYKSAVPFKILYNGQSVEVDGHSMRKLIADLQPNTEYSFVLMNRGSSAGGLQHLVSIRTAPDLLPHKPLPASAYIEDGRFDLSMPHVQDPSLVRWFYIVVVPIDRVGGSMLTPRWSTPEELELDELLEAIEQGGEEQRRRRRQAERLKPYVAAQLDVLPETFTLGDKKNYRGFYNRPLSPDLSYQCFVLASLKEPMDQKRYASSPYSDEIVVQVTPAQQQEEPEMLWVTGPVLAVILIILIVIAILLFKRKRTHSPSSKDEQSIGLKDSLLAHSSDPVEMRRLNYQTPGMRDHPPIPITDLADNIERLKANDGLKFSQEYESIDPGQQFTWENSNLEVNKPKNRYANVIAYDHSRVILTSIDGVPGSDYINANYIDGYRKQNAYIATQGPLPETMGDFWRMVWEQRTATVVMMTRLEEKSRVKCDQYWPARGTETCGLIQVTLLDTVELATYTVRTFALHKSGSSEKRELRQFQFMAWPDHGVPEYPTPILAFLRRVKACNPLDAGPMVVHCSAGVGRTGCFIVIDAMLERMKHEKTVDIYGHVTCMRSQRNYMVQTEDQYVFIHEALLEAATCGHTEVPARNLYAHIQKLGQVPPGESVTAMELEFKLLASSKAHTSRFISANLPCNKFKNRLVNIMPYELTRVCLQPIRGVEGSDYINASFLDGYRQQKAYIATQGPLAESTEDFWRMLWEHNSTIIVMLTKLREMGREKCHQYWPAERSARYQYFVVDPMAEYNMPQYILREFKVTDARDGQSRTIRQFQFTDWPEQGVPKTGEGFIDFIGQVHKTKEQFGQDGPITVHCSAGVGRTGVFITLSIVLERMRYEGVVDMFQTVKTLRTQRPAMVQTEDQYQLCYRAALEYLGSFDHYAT

[8] = molecular target: Receptor-type tyrosine-protein phosphatase beta (Homo sapiens, UniProt P23467); experiment: Inhibition of human protein-tyrosine phosphatase beta
Sequence of Receptor-type tyrosine-protein phosphatase beta (P23467 whole entry): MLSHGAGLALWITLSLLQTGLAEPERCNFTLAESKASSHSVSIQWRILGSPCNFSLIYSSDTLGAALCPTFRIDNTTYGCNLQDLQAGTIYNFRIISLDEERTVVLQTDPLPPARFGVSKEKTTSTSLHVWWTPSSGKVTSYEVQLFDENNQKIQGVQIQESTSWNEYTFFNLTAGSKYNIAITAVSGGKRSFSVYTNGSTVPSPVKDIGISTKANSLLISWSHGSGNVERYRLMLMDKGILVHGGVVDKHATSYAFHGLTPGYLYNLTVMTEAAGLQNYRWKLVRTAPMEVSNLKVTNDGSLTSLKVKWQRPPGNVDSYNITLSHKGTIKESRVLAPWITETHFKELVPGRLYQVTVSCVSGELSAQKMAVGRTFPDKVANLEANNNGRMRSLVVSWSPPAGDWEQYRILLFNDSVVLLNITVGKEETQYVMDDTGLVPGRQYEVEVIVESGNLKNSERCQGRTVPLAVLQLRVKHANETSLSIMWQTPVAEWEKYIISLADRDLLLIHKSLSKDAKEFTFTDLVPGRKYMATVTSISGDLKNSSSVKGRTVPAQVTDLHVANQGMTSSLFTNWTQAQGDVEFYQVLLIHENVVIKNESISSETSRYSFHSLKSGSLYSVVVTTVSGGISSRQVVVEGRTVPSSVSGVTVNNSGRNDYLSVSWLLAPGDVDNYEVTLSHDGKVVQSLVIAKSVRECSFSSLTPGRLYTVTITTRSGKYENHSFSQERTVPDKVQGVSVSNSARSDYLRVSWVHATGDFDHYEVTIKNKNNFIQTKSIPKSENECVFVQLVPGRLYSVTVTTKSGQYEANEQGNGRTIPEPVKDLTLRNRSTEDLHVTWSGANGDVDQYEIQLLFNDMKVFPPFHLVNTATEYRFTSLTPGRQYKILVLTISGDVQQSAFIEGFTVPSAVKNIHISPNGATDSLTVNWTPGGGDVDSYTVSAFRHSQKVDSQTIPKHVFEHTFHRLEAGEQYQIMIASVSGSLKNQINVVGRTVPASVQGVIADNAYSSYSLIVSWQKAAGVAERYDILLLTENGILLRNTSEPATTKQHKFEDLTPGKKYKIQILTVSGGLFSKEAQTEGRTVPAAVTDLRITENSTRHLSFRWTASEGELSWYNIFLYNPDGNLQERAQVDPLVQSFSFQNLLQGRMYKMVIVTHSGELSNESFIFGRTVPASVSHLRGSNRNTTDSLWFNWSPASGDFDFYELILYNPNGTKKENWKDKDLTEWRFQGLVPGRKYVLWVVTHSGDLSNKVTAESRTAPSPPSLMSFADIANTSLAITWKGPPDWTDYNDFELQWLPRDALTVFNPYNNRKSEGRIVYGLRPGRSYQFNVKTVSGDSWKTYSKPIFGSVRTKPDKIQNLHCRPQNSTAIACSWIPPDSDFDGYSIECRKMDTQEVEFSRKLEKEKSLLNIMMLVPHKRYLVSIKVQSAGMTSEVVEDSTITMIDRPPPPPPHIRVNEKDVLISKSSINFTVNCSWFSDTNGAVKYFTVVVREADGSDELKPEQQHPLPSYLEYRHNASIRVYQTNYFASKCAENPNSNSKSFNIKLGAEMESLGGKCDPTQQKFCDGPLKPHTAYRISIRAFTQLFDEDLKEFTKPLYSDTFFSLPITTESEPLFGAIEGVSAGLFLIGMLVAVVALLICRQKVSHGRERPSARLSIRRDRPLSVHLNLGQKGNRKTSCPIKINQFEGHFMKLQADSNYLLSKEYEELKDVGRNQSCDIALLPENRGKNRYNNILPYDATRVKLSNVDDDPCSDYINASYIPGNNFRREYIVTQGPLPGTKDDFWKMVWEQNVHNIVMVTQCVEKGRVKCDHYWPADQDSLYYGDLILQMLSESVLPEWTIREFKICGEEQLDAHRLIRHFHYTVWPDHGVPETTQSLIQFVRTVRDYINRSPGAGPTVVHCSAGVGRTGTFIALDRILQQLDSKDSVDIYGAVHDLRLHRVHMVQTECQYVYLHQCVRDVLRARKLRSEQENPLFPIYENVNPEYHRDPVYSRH

| SMILES | IC50 [1] | IC50 [2] | IC50 [3] | IC50 [4] | IC50 [5] | IC50 [6] | IC50 [7] | IC50 [8] |
| --- | --- | --- | --- | --- | --- | --- | --- | --- |
| O=C(O)c1ccc(CN2C(=O)S/C(=C\c3cccc(O)c3)C2=O)cc1 | 10.2 µM | 85.7 µM | 1390 µM | 112 µM | – | – | – | – |
| O=C(O)c1ccc(CN2C(=O)S/C(=C\c3ccc4ccccc4c3)C2=O)cc1 | 6.5 µM | 12 µM | 149 µM | 92 µM | – | – | – | – |
| O=C(O)c1ccc(CN2C(=O)S/C(=C\c3ccc(OCc4ccccc4)cc3)C2=O)cc1 | 1.6 µM | 2.5 µM | 15 µM | 5.6 µM | 1.3 µM | 0.3 µM | 27 µM | 0.4 µM |
| O=C(O)c1ccc(CN2C(=O)S/C(=C\c3cccc(Oc4ccccc4)c3)C2=O)cc1 | 18 µM | 37 µM | 483 µM | 130 µM | – | – | – | – |
| O=C(O)c1ccc(CN2C(=O)S/C(=C\c3ccc(Oc4ccccc4)cc3)C2=O)cc1 | 2.8 µM | 0.9 µM | 34 µM | 13 µM | 2.8 µM | 1 µM | – | 1.1 µM |
| O=C(O)c1ccc(CN2C(=O)S/C(=C\c3ccc(O)cc3)C2=O)cc1 | 10 µM | 30 µM | 188 µM | 85 µM | – | – | – | – |
| O=C(O)c1ccc(CN2C(=O)S/C(=C\c3cccc(OCc4ccccc4)c3)C2=O)cc1 | 1.1 µM | 7.1 µM | 19.7 µM | 18.4 µM | – | – | – | – |
| COc1cc(/C=C2\SC(=O)N(Cc3ccc(C(=O)O)cc3)C2=O)ccc1O | 2.6 µM | 9.1 µM | 389 µM | 26.6 µM | – | – | – | – |
| O=C(O)COc1ccc(/C=C2\SC(=O)N(Cc3ccc(C(=O)O)cc3)C2=O)cc1 | 85 µM | 219 µM | > 450 µM | 1640 µM | – | – | – | – |
| O=C(O)c1ccc(CN2C(=O)S/C(=C\c3cccc4ccccc34)C2=O)cc1 | 5.5 µM | 122 µM | 99 µM | 138 µM | – | – | – | – |
